For the assay, the target named is T1, collagenase (Homo sapiens, UniProt P03956).
T1 construct: endogenous in cells; host or cells: culture of human synovial fibroblasts (conditioned medium)
T1 sequence (P03956 100-469): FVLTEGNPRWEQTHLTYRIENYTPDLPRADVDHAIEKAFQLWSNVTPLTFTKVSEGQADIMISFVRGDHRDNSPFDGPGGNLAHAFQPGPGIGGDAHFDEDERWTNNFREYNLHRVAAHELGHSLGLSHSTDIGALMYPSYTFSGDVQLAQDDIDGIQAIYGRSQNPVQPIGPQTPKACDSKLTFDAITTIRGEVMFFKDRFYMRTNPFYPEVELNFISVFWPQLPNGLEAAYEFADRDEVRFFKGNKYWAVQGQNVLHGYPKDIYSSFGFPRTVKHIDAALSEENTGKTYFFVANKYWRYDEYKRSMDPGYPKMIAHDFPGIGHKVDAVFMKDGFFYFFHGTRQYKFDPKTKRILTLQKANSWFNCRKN
The experiment in a line: in vitro collagenase inhibiting activity (Test A). In kind it is biochemical. The note with it: collagenase from culture of human synovial fibroblasts, trypsin-activated; substrate 14C-acetylated collagen type I from rat tail tendons; microtitre plate assay. The protocol:
USA (1976), 73 945, following activation of the pro-collagenase in the conditioned medium by treatment with trypsin. Collagenase activity was measured using ^14 C-acetylated collagen type I from rat tail tendons as the substrate and employing the microtitre plate assay method of Johnson-Wint, B, Anal. Biochem. (1980), 104, 175. The IC50 is that concentration of a test compound in the enzyme digestion which reduces substrate cleavage and solubilization to 50% of that achieved by the enzyme alone.

For the molecule `CNC(=O)[C@@H](NC(=O)C(CC(=O)NO)CC1CCC1)C(C)(C)C` (single isomer, unassigned) [Example 1, N2-[3-cyclobutyl-2(R or S)-[(hydroxycarbamoyl)-methyl]propionyl]-N1,3-dimethyl-L-valinamide], inhibition was half-maximal at 2 nM (IC50). In other words, the single-digit nanomolar range.
For `CNC(=O)[C@@H](NC(=O)C(CC(=O)NO)CC1CC1)C(C)(C)C` (single isomer, unassigned) [Example 2, N2-[3-cyclopropyl-2(R or S)-[(hydroxycarbamoyl)-methyl]propionyl]-N1,3-dimethyl-L-valinamide] the value was 7 nM.
As for `CNC(=O)[C@@H](NC(=O)C(CC(=O)NO)CC1CCCC1)C(C)(C)C` (single isomer, unassigned) [Example 3, N2-[3-cyclopentyl-2(R or S)-[(hydroxycarbamoyl)methyl]propionyl]-N1-3-dimethyl-L-valinamide], the IC50 amounted to 5 nM.
As to `CNC(=O)[C@@H](NC(=O)[C@H](CC1CC1)C(CN1C(=O)N(C)C(C)(C)C1=O)C(=O)NO)C(C)(C)C` (single isomer, unassigned) [Example 4, N2-[3-cyclopropyl-2(R)-[1(R or S)-(hydroxycarbamoyl)-2-(3,4,4-trimethyl-2,5-dioxo-1-imidazolidinyl)ethyl]propionyl]-N1,3-dimethyl-L-valinamide], the IC50 came to 1 nM. This IC50 lies about 5-fold lower than the previous one.
For `CNC(=O)[C@@H](NC(=O)[C@H](CC1CCC1)C(CN1C(=O)N(C)C(C)(C)C1=O)C(=O)NO)C(C)(C)C` (single isomer, unassigned) [Example 5, N2-[3-cyclobutyl-2(R)-[1(R or S)-(hydroxycarbamoyl)-2-(3,4,4-trimethyl-2,5-dioxo-1-imidazolidinyl)ethyl]propionyl]-N1,3-dimethyl-L-valinamide] the value was 1 nM.

The IC50 is the concentration at which inhibition is half-maximal. A higher IC50 goes with lower potency.

The record behind these values is US6066662A, “Hydroxylamine derivatives and their use as metalloproteinase inhibiting agents” (Hoffmann-La Roche Inc., priority 1994, dated 2000).
